Series [1] deals with homophthalazine binding site. As to the kind of experiment: Displacement of 3H-girisopam from the homophthalazine binding site in rat brain striatal membrane preparation. Particulars: displacing 5 nM 3H-girisopam. The procedure: Ki values were calculated according to the following equation: Ki = IC50 :(1 +([L])/(KD)), [formula] wherein KD is the dissociation constant of the labelled ligand-receptor complex, [L] is the concentration of the labelled ligand and IC50 is the half maximal inhibitory concentration of the test compound.

The subject of another series is Catalepsy in mice. As to the kind of experiment: Cataleptic effect in mice (Schlichtegroll). Type of series: in vivo. To be noted: p.o. The procedure:
(§1) The cataleptic effect of the compounds was measured both in mice (Schlichtegroll: Arzneim. Forsch., 8, 489, [1958]) and in rats (Morpurgo: Arch. Int. Pharmacodyn., 137, 87, [1962]).

For another series, the system named is Catalepsy in rats. As to the kind of experiment: Cataleptic effect in rats (Morpurgo). Type of series: in vivo. To be noted: p.o. On the procedure:
as §1

In series [2] the test system is spontaneous motor activity (SMA) in mice. As to the kind of experiment: Behavioural effects according to Irwin (decrease in spontaneous motor activity). The class given is in vivo. On the set-up: key: ++ strong; + moderate; +- slight decrease in spon-taneous motor activity [SMA]. On the procedure: (§2) The behavioural effects of 1-[2'-(substituted) vinyl]-5H-2,3-benzodiazepine derivatives according to the invention and of reference substances were measured according to the method of Irwin (Psychopharmacology, 13, 222 [1968]). The results and the acute toxicity data (dead/treated animals, shown in brackets) can be seen in the following Table II
(§3) From the above Table II it can be taken that the 1-[2'-(substituted) vinyl]-5H-2,3-benzodiazepine derivatives according to the invention considerably decrease the spontaneous motor activity (SMA) in mice after intraperitoneal or oral administration.

The subject of a further series is mice. As to the kind of experiment: Acute toxicity (dead/treated animals) in the Irwin test. The class given is in vivo. On the procedure: as §2, §3
Series [3] deals with spontaneous motor activity of mice. As to the kind of experiment: Inhibition of spontaneous motor activity according to Borsy et al. Type of series: in vivo. Particulars: Mus musculus, po, 0.5 h. On the procedure: The potential antipsychotic activity of 1-[2'-(substituted) vinyl]-5H-2,3-benzodiazepine derivatives according to the invention and of reference substances was tested according to the method of Puech et al. (Psychopharmacology, 75, 84, [1981] by measuring their inhibiting effect on the "climbing" reaction induced by 5,6,6a,7-tetra-(hydro)-6-(methyl)-4H-dibenzo[de,g]quinoline-10,11-di-(ol){apomorphine}. The results have been expressed as ED50 values. Since the inhibition of the spontaneous motor activity (SMA) is an important characteristic of the antipsychotic drugs, the ED50 values of a number of compounds were determined according to the method of Borsy et al. (Arch. Int. Pharmacodyn., 124, 1, 196).
The effect of the 1-[2'-(substituted) vinyl]-5H-2,3-benzodiazepine derivatives according to the invention on the spontaneous motor activity was tested according to the method of Borsy et al. Groups consisting of 3 mice were treated orally with different doses of the compounds to be tested. Then the animals were placed into a 10-channel Dews system equipment, wherein the number of interruptions of infrared beam within 30 minutes was counted. […]

Setting [4] is: p.o., mice, interruptions of infrared beam within 30 minutes, read-out: ID50 (the source's name).

Molecules are shown by their SMILES. Like-named read-outs stand apart in the source and are kept apart here.

In the case of `COc1ccc(C=CC2=NN=C(C)Cc3cc(OC)c(OC)cc32)cc1` [Example 9], in series [1], the affinity, expressed as Ki, was 18 nM.
The same measure, in the same setting: the figure for `COc1cc2c(cc1OC)C(C=Cc1ccc([N+](=O)[O-])cc1)=NN=C(C)C2` [Example 12] is 17 nM; for `COc1ccc(C=CC2=NN=C(C)Cc3cc(OC)c(OC)cc32)cc1C` [Example 14] it is 16 nM; for `COc1cc2c(cc1OC)C(C=Cc1ccc(OC(C)C)cc1)=NN=C(C)C2` [Example 15] it is 13 nM.
Same read-out and setting: the figure for `COc1cc2c(cc1OC)C(C=Cc1cccc(OC(C)C)c1)=NN=C(C)C2` [Example 16] is 11 nM; for `COc1cc2c(cc1OC)C(C=Cc1ccccc1OC(C)C)=NN=C(C)C2` [Example 18] it is 18 nM.
`COc1cc2c(cc1OC)C(C=Cc1ccc3c(c1OC)OCO3)=NN=C(C)C2` [Example 21] displayed a Ki in series [1] of 8 nM. Also, the “Catalepsy in mice Minimal effective dose [MED]” value in the series on Catalepsy in mice is given as greater than 100 mg/kg. The “Catalepsy in rats Minimal effective dose [MED]” value with Catalepsy in rats is reported as greater than 100 mg/kg.
As to `COc1cc2c(cc1OC)C(C=Cc1ccc(F)cc1)=NN=C(C)C2` [Example 28], the affinity in series [1] corresponds to a Ki of 12 nM.
Same read-out and setting: the figure for `COc1cc2c(cc1OC)C(C=Cc1ccccc1)=NN=C(C)C2` [Example 33] is 12 nM.
The same measure, in the same setting: to `COc1cc2c(cc1OC)C(C=Cc1ccccc1Br)=NN=C(C)C2` [Example 36] belongs 10 nM.
As to `CCC1C(C)=NN=C(C=Cc2ccc(N(C)C)cc2)c2cc(OC)c(OC)cc21` (stereo not drawn) [Example 37], the Behaviour result in series [2] (300 mg/kg i.p.) and in series [2] (1000 mg/kg p.o.) was “+ +” each time. Moreover, the “acute toxicity (dead/treated animals)” value is given as 0/5 in the series with mice (300 mg/kg i.p.) and 4/5 in the series with mice (1000 mg/kg p.o.).
Turning to `COc1cc2c(cc1OC)C(C=Cc1ccc(OC)c(C(C)C)c1)=NN=C(C)C2` [Example 40], the Behaviour entry in series [2] (300 mg/kg i.p.) and in series [2] (1000 mg/kg p.o.) was “+ +” in each case. For the same compound, the results for the “acute toxicity (dead/treated animals)” value in the series on mice (300 mg/kg i.p.) and with mice (1000 mg/kg p.o.) were 0/5 and 4/5, respectively.
`CCCc1cc(C=CC2=NN=C(C)Cc3cc(OC)c(OC)cc32)ccc1OC` [Example 41] came in with a Ki in series [1] of 16 nM.
For `COc1cc2c(cc1OC)C(C=Cc1ccccc1C)=NN=C(C)C2` [Example 42], in series [1], the Ki was 11 nM. The Behaviour entry in series [2] (300 mg/kg i.p.) and in series [2] (1000 mg/kg p.o.) was “+ +” in each case. Also, the “acute toxicity (dead/treated animals)” value in the series with mice (300 mg/kg i.p.) and in the series on mice (1000 mg/kg p.o.) was 0/5 each time.
Consider `COc1cc2c(cc1OC)C(C=Cc1ccc(C(F)(F)F)cc1)=NN=C(C)C2` [Example 45], for which the Ki in series [1] worked out at 15 nM.
Take `CCC1C(C)=NN=C(C=Cc2cccc(Cl)c2)c2cc(OC)c(OC)cc21` (stereo not drawn) [Example 48]: the inhibition constant Ki in series [1] came out at 19 nM. In addition, the Behaviour entry in series [2] (300 mg/kg i.p.) was “+”; in series [2] (1000 mg/kg p.o.) it was “+-”. The “acute toxicity (dead/treated animals)” value in the series on mice (300 mg/kg i.p.) and in the series with mice (1000 mg/kg p.o.) was 0/5 throughout.
Turning to `CCN(CC)c1ccc(C=CC2=NN=C(C)Cc3cc(OC)c(OC)cc32)cc1` [Example 49], the affinity in series [1] corresponds to a Ki of 10 nM. Besides, the Behaviour result in series [2] (300 mg/kg i.p.) and in series [2] (1000 mg/kg p.o.) was “+ +” each time. The “acute toxicity (dead/treated animals)” value with mice (300 mg/kg i.p.) was 0/5; in the series on mice (1000 mg/kg p.o.), 3/5.
In the case of `COc1cc2c(cc1OC)C(C=Cc1cccc(Cl)c1)=NN=C(C)C2` [Example 51], in series [1], the Ki is 19 nM. Further, the figures for the Behaviour result in series [2] (300 mg/kg i.p.) and in series [2] (1000 mg/kg p.o.) were “+” and “+ +”, respectively. The “acute toxicity (dead/treated animals)” value in the series on mice (300 mg/kg i.p.) and in the series with mice (1000 mg/kg p.o.) was 0/6 in each case. Besides, in the series on Catalepsy in mice, the “Catalepsy in mice Minimal effective dose [MED]” value is on record as 100 mg/kg. Besides, the “Catalepsy in rats Minimal effective dose [MED]” value with Catalepsy in rats is greater than 100 mg/kg.
As to `COc1cc2c(cc1OC)C(C=Cc1ccccc1Cl)=NN=C(C)C2` [Example 54], the Behaviour entry in series [2] (300 mg/kg i.p.) and in series [2] (1000 mg/kg p.o.) was “+” in each case. Further, the “acute toxicity (dead/treated animals)” value with mice (300 mg/kg i.p.) and in the series on mice (1000 mg/kg p.o.) was 2/5 each time.
`COc1ccc(C=CC2=NN=C(C)Cc3cc(OC)c(OC)cc32)cc1Cl` [Example 55] had a Ki in series [1] of 11 nM.
In turn, `COc1cc(OC)c(C=CC2=NN=C(C)Cc3cc(OC)c(OC)cc32)c(OC)c1` [Example 58] had a Ki in series [1] of 19 nM. The results for the Behaviour result in series [2] (300 mg/kg i.p.) and in series [2] (1000 mg/kg p.o.) were “+” and “+ +”, respectively. For the same compound, the “acute toxicity (dead/treated animals)” value in the series with mice (300 mg/kg i.p.) and in the series with mice (1000 mg/kg p.o.) was 0/5 throughout.
As for `COc1cc(OC)c(OC)cc1C=CC1=NN=C(C)Cc2cc(OC)c(OC)cc21` [Example 59], the affinity in series [1], expressed as Ki, was 16 nM.
On to `CCC1C(C)=NN=C(C=Cc2ccc(OC)c(OC)c2)c2cc(OC)c(OC)cc21` (stereo not drawn) [Example 64], for which the Behaviour entry in series [2] (300 mg/kg i.p.) is recorded as “+”; in series [2] (1000 mg/kg p.o.), “+-”. Besides, the “acute toxicity (dead/treated animals)” value in the series with mice (300 mg/kg i.p.) and in the series on mice (1000 mg/kg p.o.) was 0/5 throughout.
`COc1cc2c(cc1OC)C(C=Cc1ccc3c(c1)OCO3)=NN=C(C)C2` [Example 67] gave a Ki in series [1] of 5 nM. Besides, the Behaviour entry in series [2] (300 mg/kg i.p.) is on record as “+-”; in series [2] (1000 mg/kg p.o.), “+”. The “acute toxicity (dead/treated animals)” value in the series with mice (300 mg/kg i.p.) and with mice (1000 mg/kg p.o.) was 0/6 each time. The “Catalepsy in mice Minimal effective dose [MED]” value with Catalepsy in mice is on record as greater than 100 mg/kg. For the same compound, in the series on Catalepsy in rats, the “Catalepsy in rats Minimal effective dose [MED]” value is on record as greater than 100 mg/kg.
With `COc1cc2c(cc1OC)C(C=Cc1c[nH]c3ccccc13)=NN=C(C)C2` [Example 71], the Ki in series [1] is 5 nM.
The same measure, in the same setting: to `COc1cc2c(cc1OC)C(C=Cc1cccc(N)c1)=NN=C(C)C2` [Example 74] belongs 14 nM.
`COc1cc2c(cc1OC)C(C=Cc1ccc(Cl)c(N)c1)=NN=C(C)C2` [Example 77] registered an inhibition constant (Ki) in series [1] of 10 nM. The Behaviour result in series [2] (300 mg/kg i.p.) and in series [2] (1000 mg/kg p.o.) was “+ +” throughout. For the same compound, the “acute toxicity (dead/treated animals)” value in the series on mice (300 mg/kg i.p.) and with mice (1000 mg/kg p.o.) was 0/5 each time.
`COc1cc2c(cc1OC)C(C=Cc1ccc(Cl)c(NC(C)=O)c1)=NN=C(C)C2` [Example 85, 1-[3'-(Acetylamino)-4-(chloro)-styryl]-4-[methyl]-7,8-di-[methoxy]-5H-2,3-benzodiazepine] displayed a Ki in series [1] of 14 nM. For the same compound, the Behaviour entry in series [2] (300 mg/kg i.p.) is listed as “+-”; in series [2] (1000 mg/kg p.o.), “+”. Moreover, the “acute toxicity (dead/treated animals)” value in the series with mice (300 mg/kg i.p.) and in the series on mice (1000 mg/kg p.o.) was 0/5 throughout.
For `CC1=NN=C(C=Cc2ccc(C#N)cc2)c2cc3c(cc2C1)OCO3` [Example 88, 1-[4'-(Cyano)-styryl]-4-[methyl]-7,8-[methylenedioxy]-5H-2,3-benzodiazepine], in series [3] (setting [4]), the ED50 is greater than 100 mg/kg.
Still for that read-out and setting: the figure for `CC1=NN=C(C=Cc2ccc(F)cc2)c2c(ccc3c2OCO3)C1` [Example 91, 1-[4'-(Fluoro)-styryl]-4-[methyl]-8,9-[methylenedioxy]-5H-2,3-benzodiazepine] is greater than 100 mg/kg.
With `CN1C(=O)CN=C(c2ccccc2)c2cc(Cl)ccc21` [diazepam, 7-(chloro)-2,3-di-(hydro)-1-(methyl)-5-(phenyl)-1H-1,4-benzodiazepin-2-(one), reference compound], the ED50 in series [3] (read-out: ID50) came out at 23 mg/kg.

For the origin of these results see patent EP0726257A1, “1-(Hetero)Arylvinyl-5H-2,3-benzodiazepine derivatives useful for the treatment of central nervous system disorders, and benzopyrylium intermediates for their preparation” (EGIS GYOGYSZERGYAR RT., priority 1995, dated 1996).
